MIC and minimum inhibitory concentration data for one substance are collected here from US10870876B2, “Method for detecting a presence or absence of at least one first zone of inhibition” (BIOMÉRIEUX, priority 2015, dated 2020).

Experiment [1] concerns Escherichia coli ATCC 35218. The experiment is described as follows: Etest strip MIC, deposition of the sample in droplets along the strip. It counts as cell-based.
Experiment [2] relates to Escherichia coli ATCC 25922. The experiment in a line: Etest strip MIC, sample deposited by smearing with a filtration sampling tool along two axes. It counts as cell-based. Conditions: smear deposition, incubated at 35° C., shadowgraphy images from 3 h 30; visual examination at 6 h 30 confirms. From the text: A third method of implementation of the invention is illustrated by FIGS. 11a, 11b and 12. In this method, the sample is deposited by smearing on the surface of the culture medium (e.g. agar in a Petri dish with a diameter greater than or equal to 9 cm) by means of a sampling tool such as described in the international application published under the number WO2012/083150. Such an integrated device makes it possible to carry out one or more filtration steps and also to transfer a liquid sample. Said device comprises a tubular portion, one of the ends of which is covered with a filtration material such as a membrane, said filtration material being arranged outside this end and covering it totally. The other end of the tubular portion is able to be connected to a suction or dispensing means such as a vacuum pump. The benefit of using such a tool especially being able to estimate the MIC of a sample originating from a positive blood culture bottle, that is to say one which has a result confirming the presence of microorganisms after a given incubation time. For this purpose, the sample may especially be prepared by taking off a volume of the positive blood culture, carrying out a step of lysis, for example chemical lysis, of the blood cells of the volume taken off, then by carrying out filtration of the lysed volume by suction at the surface of a membrane. […]

On to gentamicin, for which the MIC in experiment [1] (Table 2, droplet, ATCC 35218, 0.01 McF, 4 H) was determined as 1.3 µg/mL; in experiment [1] (Table 2, droplet, ATCC 35218, 0.01 McF, 5 H) it was 1.3 µg/mL; in experiment [1] (Table 2, droplet, ATCC 35218, 0.1 McF, 4 H) it was 2 µg/mL; in experiment [1] (Table 2, droplet/replicate 2, ATCC 35218, 0.5 McF, 4 H), 2 µg/mL. Also, in experiment [2], the minimum inhibitory concentration turned out to be 1.5 µg/mL.
